This note sets out measurements from patent US7446199B2, “Compositions useful as inhibitors of protein kinases” (Vertex Pharmaceuticals Incorporated, priority 2003, dated 2008).

Bounds are passed on as bounds.

Type in all cases: biochemical
Assay [1] deals with c-Met (Homo sapiens, UniProt P08581). In words: Ki determination for the inhibition of c-Met, coupled enzyme system. The conditions noted are these: 200 μM ATP, 10 μM polyGluTyr, 80 nM c-Met, 30° C. Here is the method:
Compounds were screened for their ability to inhibit c-Met kinase activity using a standard coupled enzyme system (Fox et al., Protein Sci. 1998, 7, 2249). Reactions were carried out in a solution containing 100 mM HEPES (pH 7.5), 10 mM MgCl2, 25 mM NaCl, 300 μM NADH, 1 mM DTT, and 1.5% DMSO. Final substrate concentrations in the assay were 200 μM ATP (Sigma Chemicals, St Louis, Mo.) and 10 μM polyGluTyr (Sigma Chemical Company, St. Louis). Reactions were carried out at 30° C. and 80 nM c-Met. Final concentrations of the components of the coupled enzyme system were 2.5 mM phosphoenolpyruvate, 300 μM NADH, 30 μg/ml pyruvate kinase and 10 μg/ml lactate dehydrogenase.
An assay stock buffer solution was prepared containing all of the reagents listed above with the exception of ATP and a test compound of the present invention. The assay stock buffer solution (175 μl) was incubated in a 96 well plate with 5 μl of the test compound of the present invention at final concentrations spanning 0.006 μM to 12.5 μM at 30° C. for 10 minutes. Typically, a 12-point titration was conducted by preparing serial dilutions (from 10 mM compound stocks) with DMSO of the test compounds of the present invention in daughter plates. The reaction was initiated by the addition of 20 μl of ATP (final concentration 200 μM). Rates of reaction were obtained using a Molecular Devices Spectramax plate reader (Sunnyvale, Calif.) over 10 minutes at 30° C. The Ki values were determined from the rate data as a function of inhibitor concentration.

Assay [2] concerns the target T1, FLT-3 (Homo sapiens, UniProt P36888).
T1 construct: 0.02% BSA and 3 nM FLT-3
T1 sequence (P36888 27-993): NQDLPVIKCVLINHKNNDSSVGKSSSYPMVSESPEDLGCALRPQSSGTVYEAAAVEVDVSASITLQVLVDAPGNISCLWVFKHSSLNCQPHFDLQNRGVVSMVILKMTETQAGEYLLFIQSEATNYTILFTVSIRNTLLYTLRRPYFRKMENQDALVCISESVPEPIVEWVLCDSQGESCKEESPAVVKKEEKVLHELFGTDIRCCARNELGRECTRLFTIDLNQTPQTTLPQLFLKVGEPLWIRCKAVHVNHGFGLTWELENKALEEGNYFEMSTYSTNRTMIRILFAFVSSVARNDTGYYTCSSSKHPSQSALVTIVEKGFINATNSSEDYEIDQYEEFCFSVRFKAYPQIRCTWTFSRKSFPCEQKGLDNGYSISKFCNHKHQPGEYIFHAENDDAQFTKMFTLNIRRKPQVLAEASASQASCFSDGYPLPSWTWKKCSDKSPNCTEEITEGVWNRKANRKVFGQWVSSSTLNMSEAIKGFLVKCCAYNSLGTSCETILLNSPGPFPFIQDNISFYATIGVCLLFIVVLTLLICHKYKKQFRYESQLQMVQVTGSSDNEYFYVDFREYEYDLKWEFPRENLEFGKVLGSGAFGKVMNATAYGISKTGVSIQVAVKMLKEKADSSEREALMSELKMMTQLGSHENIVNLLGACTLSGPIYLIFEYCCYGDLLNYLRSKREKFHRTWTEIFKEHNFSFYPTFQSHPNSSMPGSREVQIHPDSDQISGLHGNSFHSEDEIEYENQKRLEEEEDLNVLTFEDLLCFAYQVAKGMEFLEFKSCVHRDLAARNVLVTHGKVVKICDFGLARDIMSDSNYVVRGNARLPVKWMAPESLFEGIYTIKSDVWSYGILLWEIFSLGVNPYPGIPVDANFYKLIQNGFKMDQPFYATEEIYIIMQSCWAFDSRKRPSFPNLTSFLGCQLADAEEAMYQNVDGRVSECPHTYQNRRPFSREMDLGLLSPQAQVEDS
The assay can be described thus: Inhibition of FLT-3, radiometric filter-binding assay. The following applies: 90 μM ATP, 0.5 mg/mL pE4Y, room temperature. Here is the method: (§1) Compounds were screened for their ability to inhibit FLT-3 activity using a radiometric filter-binding assay. This assay monitors the ^33P incorporation into a substrate poly(Glu, Tyr) 4:1 (pE4Y). Reactions were carried out in a solution containing 100 mM HEPES (pH 7.5), 10 mM MgCl2, 25 mM NaCl, 1 mM DTT, 0.01% BSA and 2.5% DMSO. Final substrate concentrations in the assay were 90 μM ATP and 0.5 mg/mL pE4Y (both from Sigma Chemicals, St Louis, Mo.). The final concentration of compounds is generally between 0.01 and 5 μM. Typically, a 12-point titration was conducted by preparing serial dilutions from 10 mM DMSO stock of test compound. Reactions were carried out at room temperature.
Two assay solutions were prepared. Solution 1 contains 100 mM HEPES (pH 7.5), 10 mM MgCl2, 25 mM NaCl, 1 mg/ml pE4Y and 180 μM ATP(containing 0.3 μCi of [γ-^33P]ATP for each reaction). Solution 2 contains 100 mM HEPES (pH 7.5), 10 mM MgCl2, 25 mM NaCl, 2 mM DTT, 0.02% BSA and 3 nM FLT-3. The assay was run on a 96 well plate by mixing 50 μL each of Solution 1 and […] of the test compounds. The reaction was initiated with Solution2. After incubation for 20 minutes at room temperature, the reaction was stopped with 50 μL of 20% TCA containing 0.4 mM of ATP. All of the reaction volume was then transferred to a filter plate and washed with 5% TCA by a Harvester9600 from TOMTEC (Hamden, Conn.). The amount of ^33P incorporation into pE4y was analyzed by a Packard TopCount Microplate Scintillation Counter (Meriden, Conn.). The data was fitted using Prism software to get an IC50 or Ki.

The target in assay [3] is T2, c-KIT (Homo sapiens, UniProt P10721).
T2 construct: 0.02% BSA and 25 nM c-KIT
T2 sequence (P10721 26-976): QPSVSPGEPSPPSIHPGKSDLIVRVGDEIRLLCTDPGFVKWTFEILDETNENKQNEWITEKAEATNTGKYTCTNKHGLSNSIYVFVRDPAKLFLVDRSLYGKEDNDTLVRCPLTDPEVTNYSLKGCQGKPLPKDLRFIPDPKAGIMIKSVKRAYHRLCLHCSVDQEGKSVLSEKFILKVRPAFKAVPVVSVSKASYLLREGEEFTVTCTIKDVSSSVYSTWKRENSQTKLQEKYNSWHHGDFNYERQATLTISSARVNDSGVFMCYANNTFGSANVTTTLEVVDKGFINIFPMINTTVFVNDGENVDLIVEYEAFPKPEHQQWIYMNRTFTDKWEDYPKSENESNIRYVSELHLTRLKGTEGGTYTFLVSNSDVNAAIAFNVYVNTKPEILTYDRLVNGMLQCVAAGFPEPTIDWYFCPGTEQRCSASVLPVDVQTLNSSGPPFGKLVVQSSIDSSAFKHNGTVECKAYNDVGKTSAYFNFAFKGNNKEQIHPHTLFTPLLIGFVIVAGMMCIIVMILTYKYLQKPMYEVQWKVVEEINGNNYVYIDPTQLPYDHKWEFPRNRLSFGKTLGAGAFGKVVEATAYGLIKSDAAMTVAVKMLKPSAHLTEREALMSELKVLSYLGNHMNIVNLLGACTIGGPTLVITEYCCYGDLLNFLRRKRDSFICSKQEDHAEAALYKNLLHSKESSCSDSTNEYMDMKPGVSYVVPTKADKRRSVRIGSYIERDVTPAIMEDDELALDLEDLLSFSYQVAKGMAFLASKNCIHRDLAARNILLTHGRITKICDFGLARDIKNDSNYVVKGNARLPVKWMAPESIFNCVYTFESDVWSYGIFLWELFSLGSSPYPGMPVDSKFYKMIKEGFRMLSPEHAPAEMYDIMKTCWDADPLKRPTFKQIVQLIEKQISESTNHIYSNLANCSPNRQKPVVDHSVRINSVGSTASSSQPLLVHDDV
In words: Inhibition of c-KIT, radiometric filter-binding assay. The following applies: 700 μM ATP, 0.5 mg/mL pE4Y, room temperature. Here is the method:
as §1, with “Compounds are screened for” for “Compounds were screened for”, “to inhibit c-KIT activity using” for “to inhibit FLT-3 activity using”, “(pE4Y). Reactions are carried out” for “(pE4Y). Reactions were carried out”, “assay were 700 μM ATP” for “assay were 90 μM ATP”, “12-point titration is conducted by” for “12-point titration was conducted by”
Two assay solutions are prepared. Solution 1 contains 100 mM HEPES (pH 7.5), 10 mM MgCl2, 25 mM NaCl, 1 mg/ml pE4Y and 1.4 mM ATP(containing 0.5 μCi of [γ-^33P]ATP for each reaction). Solution 2 contains 100 mM HEPES (pH 7.5), 10 mM MgCl2, 25 mM NaCl, 2 mM DTT, 0.02% BSA and 25 nM c-KIT. The assay is run on a 96 well plate by mixing 33 μL of Solution1 and 1.65 μL of the test compounds. The reaction is initiated with 33 μL of Solution2. After incubation for 20 minutes at room temperature, the reaction was stopped with 50 μL of 10% TCA containing 0.2 mM of ATP. All of the reaction volume is then transferred to a filter plate and washed with 5% TCA by a Harvester9600 from TOMTEC (Hamden, Conn.). The amount of ^33P incorporation into pE4y is analyzed by a Packard TopCount Microplate Scintillation Counter (Meriden, Conn.). The data is fitted using Prism software to get an IC50 or Ki.

Assay [4] deals with T3, JAK3 (Homo sapiens, UniProt P52333).
T3 sequence (P52333 1-1124): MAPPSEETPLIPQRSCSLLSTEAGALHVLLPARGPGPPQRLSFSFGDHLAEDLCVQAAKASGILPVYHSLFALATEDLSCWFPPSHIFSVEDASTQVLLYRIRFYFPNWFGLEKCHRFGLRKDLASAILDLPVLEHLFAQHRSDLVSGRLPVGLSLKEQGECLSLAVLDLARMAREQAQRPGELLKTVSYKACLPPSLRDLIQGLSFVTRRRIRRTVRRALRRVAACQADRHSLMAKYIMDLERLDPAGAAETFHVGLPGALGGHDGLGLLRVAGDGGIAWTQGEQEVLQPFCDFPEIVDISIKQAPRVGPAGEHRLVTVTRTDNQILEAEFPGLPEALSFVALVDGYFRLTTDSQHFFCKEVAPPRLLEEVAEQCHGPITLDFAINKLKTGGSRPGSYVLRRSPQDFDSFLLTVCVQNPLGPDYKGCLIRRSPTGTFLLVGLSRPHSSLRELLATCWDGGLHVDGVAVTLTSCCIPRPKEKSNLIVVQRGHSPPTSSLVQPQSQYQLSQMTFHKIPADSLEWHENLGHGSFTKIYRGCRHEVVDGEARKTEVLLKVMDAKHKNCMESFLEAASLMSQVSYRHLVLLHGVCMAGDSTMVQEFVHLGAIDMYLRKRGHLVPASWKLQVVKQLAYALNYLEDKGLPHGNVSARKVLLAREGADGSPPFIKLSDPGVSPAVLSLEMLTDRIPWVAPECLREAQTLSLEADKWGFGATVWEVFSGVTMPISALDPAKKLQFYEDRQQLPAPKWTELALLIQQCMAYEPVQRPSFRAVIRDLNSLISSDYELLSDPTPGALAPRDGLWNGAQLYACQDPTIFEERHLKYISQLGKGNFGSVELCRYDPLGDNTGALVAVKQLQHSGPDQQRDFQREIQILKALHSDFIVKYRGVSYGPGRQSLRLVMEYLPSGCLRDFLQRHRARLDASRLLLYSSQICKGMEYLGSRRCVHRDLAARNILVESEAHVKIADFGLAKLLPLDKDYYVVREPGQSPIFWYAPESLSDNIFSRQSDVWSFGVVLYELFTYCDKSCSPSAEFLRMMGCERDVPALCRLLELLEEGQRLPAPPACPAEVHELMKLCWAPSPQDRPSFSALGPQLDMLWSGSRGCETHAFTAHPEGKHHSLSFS
In words: JAK3 inhibition assay (ELISA, Poly (Glu, Ala, Tyr) coated plates). The following applies: 2 mM ATP, 60 minutes at 30° C. Here is the method:
Compound inhibition of JAK3 was assayed by the method described by G. R. Brown, et al., Bioorg. Med. Chem. Lett. 2000, vol. 10, pp 575-579 in the following manner. Into Maxisorb plates, previously coated at 4° C. with Poly (Glu, Ala, Tyr) 6:3:1 then washed with phosphate buffered saline 0.05% and Tween (PBST), was added 2 mM ATP, 5 mM MgCl2, and a solution of compound in DMSO. The reaction was started with JAK enzyme and the plates incubated for 60 minutes at 30° C. The plates were then washed with PBST, […] HRP-Conjugated 4G10 antibody was added, and the plate incubated for 90 minutes at 30° C. The plate was again washed with PBST, […] TMB solution is added, and the plates were incubated for another 30 minutes at 30° C. Sulfuric acid ([…] of 1M) was added to stop the reaction and the plate is read at 450 nm to obtain the optical densities for analysis to determine IC50 values.
(In general: ELISA stands for enzyme-linked immunosorbent assay.)

Chain of c-Met (P08581 25-1390): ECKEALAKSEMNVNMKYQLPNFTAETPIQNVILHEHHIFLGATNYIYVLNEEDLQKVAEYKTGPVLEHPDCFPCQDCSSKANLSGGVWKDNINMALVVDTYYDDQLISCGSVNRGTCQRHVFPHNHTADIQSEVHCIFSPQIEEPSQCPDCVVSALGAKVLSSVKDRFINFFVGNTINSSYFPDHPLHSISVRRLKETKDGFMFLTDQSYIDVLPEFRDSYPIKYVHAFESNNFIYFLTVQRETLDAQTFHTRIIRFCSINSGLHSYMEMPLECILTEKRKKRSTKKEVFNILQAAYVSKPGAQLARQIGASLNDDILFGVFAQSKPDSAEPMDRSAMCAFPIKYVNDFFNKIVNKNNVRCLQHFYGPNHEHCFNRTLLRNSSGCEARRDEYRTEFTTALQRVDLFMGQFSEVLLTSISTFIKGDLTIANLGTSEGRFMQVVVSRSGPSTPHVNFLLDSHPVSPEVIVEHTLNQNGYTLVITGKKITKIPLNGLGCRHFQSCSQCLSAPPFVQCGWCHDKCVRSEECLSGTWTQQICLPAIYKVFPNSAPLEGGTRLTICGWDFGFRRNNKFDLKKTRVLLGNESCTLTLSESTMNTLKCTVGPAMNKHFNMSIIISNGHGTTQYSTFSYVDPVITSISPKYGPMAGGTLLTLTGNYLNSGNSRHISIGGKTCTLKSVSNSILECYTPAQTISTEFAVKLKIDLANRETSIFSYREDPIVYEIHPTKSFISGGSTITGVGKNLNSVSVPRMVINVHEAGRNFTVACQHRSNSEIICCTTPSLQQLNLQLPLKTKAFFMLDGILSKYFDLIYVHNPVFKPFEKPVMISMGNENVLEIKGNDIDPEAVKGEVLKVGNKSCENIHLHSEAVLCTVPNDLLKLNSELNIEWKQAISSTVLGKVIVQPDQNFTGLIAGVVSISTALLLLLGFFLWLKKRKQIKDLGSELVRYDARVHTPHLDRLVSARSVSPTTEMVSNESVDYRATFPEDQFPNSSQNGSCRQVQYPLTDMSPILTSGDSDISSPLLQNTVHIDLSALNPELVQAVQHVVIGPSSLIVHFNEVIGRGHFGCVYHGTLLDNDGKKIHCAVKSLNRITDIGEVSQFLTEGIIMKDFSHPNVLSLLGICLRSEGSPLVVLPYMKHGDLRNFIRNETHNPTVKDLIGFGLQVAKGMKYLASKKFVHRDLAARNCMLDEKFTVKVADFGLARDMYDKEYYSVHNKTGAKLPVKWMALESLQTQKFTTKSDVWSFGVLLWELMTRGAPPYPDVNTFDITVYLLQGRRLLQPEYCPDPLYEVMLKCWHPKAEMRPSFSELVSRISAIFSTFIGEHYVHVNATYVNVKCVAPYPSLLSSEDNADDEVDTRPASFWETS

Broadly, the Ki is the equilibrium dissociation constant of an inhibitor or competing ligand from its target. For `CN(C)Cc1cnc2[nH]cc(-c3oncc3-c3cccc(F)c3F)c2c1` [Compound 54, {3-[4-(2,3-Difluoro-phenyl)-isoxazol-5-yl]-1H-pyrrolo[2,3-b]pyridin-5-ylmethyl}-dimethyl-amine], the inhibition constant (Ki) in assay [1] and in assay [2] was 1 to 12.5 µM throughout.
On to `OCC1CCN(c2ccc(-c3cnc4[nH]cc(-c5nncn5-c5cccc(F)c5F)c4c3)cn2)CC1` [Compound 120, (5′-{3-[4-(2,3-Difluoro-phenyl)-4H-[1,2,4]triazol-3-yl]-1H-pyrrolo[2,3-b]pyridin-5-yl}-3,4,5,6-tetrahydro-2H-[1,2′]bi-pyridinyl-4-yl)-methanol], for which the Ki in assay [3] is 0.2 to 1 µM; in assay [1] it was under 0.2 µM; in assay [4], 1 to 12.5 µM.
With `Fc1cccc(-n2cnnc2-c2c[nH]c3ncc(-c4ccc(N5CCOCC5)nc4)cc23)c1F` [Compound 121, 3-[4-(2,3-Difluoro-phenyl)-4H-[1,2,4]triazol-3-yl]-5-(6-morpholin-4-yl-pyridin-3-yl)-1H-pyrrolo[2,3-b]pyridine], the Ki in assay [3] was 0.2 to 1 µM; in assay [1] it was under 0.2 µM; in assay [4], 1 to 12.5 µM.
Take `C[C@@H]1CN(c2ccc(-c3cnc4[nH]cc(-c5nncn5-c5cccc(F)c5F)c4c3)cn2)C[C@H](C)N1` [Compound 122, 3-[4-(2,3-Difluoro-phenyl)-4H-[1,2,4]triazol-3-yl]-5-[6-(3,5-dimethyl-piperazin-1-yl)-pyridin-3-yl]-1H-pyrrolo [2,3-b]pyridine]: the inhibitory constant (Ki) is 0.2 to 1 µM in assay [3], under 0.2 µM in assay [1] and 1 to 12.5 µM in assay [4].
Turning to `Fc1cccc(-n2cnnc2-c2c[nH]c3ncc(-c4ccc(N5CCC(N6CCCC6)CC5)nc4)cc23)c1F` [Compound 123, 5′-{3-[4-(2,3-Difluoro-phenyl)-4H-[1,2,4]triazol-3-yl]-1H-pyrrolo[2,3-b]pyridin-5-yl}-4-pyrrolidin-1-yl-3,4,5,6-tetrahydro-2H-[1,2′]bipyridinyl], the Ki in assay [3] is 0.2 to 1 µM; in assay [1], under 0.2 µM; in assay [4], 1 to 12.5 µM.
